According to ChEMBL document CHEMBL4024756, “Identification of 4-Phenoxyquinoline Based Inhibitors for L1196M Mutant of Anaplastic Lymphoma Kinase by Structure-Based Design” (J Med Chem, 2017):
pIC50: −log10 of the molar value.

Tests used:
[1] = Oral bioavailability in rat at 10 mg/kg; format: ADME, organism-based; conditions: in vivo
[2] = Tmax in rat at 10 mg/kg, po; format: ADME, organism-based; conditions: in vivo
[3] = Half life in rat at 1 mg/kg, iv; format: ADME, organism-based; conditions: in vivo
[4] = Cmax in rat at 1 mg/kg, iv; format: ADME, organism-based; parameters: dose 1 mg/kg, route intravenous; conditions: in vivo
[5] = Cmax in rat at 10 mg/kg, po; format: ADME, organism-based; parameters: dose 10 mg/kg, route oral; conditions: in vivo
[6] = AUClast in rat at 10 mg/kg, po; format: ADME, organism-based; parameters: dose 10 mg/kg, time 0 - last, route oral; conditions: in vivo
[7] = Tmax in rat at 1 mg/kg, iv; format: ADME, organism-based; conditions: in vivo
[8] = AUClast in rat at 1 mg/kg, iv; format: ADME, organism-based; parameters: dose 1 mg/kg, time 0 - last, route intravenous; conditions: in vivo
[9] = target: Voltage-gated inwardly rectifying potassium channel KCNH2 (Homo sapiens, UniProt Q12809); assay: Inhibition of human ERG by fluorescently labeled tracer binding method
NCI-H2228 = assay: Antiproliferative activity against human NCI-H2228 cells after 72 hrs by MTT assay; conditions: NCI-H2228, 72 h
[10] = Antiproliferative activity against human H2228/CR cells after 72 hrs by MTT assay; conditions: NCI-H2228, 72 h

Sequence of Voltage-gated inwardly rectifying potassium channel KCNH2 (Q12809 whole entry): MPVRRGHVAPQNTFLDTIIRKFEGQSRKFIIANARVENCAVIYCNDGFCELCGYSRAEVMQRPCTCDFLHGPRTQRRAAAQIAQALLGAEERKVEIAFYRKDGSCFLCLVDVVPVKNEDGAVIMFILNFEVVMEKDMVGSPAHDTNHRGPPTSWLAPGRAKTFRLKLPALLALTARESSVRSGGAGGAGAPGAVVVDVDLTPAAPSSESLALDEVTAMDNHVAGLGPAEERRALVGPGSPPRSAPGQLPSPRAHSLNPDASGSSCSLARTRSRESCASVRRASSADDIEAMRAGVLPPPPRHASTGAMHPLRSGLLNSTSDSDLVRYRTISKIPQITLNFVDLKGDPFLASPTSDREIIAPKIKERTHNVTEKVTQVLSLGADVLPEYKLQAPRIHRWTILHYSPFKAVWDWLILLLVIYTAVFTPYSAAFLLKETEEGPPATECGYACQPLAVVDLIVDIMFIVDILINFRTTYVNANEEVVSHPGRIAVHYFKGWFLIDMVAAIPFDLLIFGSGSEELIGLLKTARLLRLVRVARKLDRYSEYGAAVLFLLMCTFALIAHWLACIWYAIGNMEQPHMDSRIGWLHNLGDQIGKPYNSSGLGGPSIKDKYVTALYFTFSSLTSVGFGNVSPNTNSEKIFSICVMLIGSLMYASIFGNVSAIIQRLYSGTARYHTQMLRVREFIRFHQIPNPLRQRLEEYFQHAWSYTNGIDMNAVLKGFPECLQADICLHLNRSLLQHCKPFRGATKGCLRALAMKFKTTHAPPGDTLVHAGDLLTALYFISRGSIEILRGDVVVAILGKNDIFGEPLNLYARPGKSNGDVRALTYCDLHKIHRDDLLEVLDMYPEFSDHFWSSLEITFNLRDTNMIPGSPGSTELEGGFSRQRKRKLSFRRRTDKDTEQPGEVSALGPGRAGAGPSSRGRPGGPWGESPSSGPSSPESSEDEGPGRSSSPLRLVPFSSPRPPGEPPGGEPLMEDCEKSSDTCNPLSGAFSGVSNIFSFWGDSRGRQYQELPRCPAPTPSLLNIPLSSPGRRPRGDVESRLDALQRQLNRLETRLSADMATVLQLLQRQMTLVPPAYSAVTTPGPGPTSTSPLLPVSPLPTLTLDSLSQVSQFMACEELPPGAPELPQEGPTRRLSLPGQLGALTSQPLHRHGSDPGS

| Compound | bioavailability [1] | Tmax [2] | half-life [3] | Cmax [4] | Cmax [5] | AUC(0-t) [6] | Tmax [7] | AUC(0-t) [8] | pIC50 [9] | pIC50 (NCI-H2228) | pIC50 [10] |
| --- | --- | --- | --- | --- | --- | --- | --- | --- | --- | --- | --- |
| Oc1ccc(Oc2ccnc3cc(-c4cnn(C5CCNCC5)c4)ccc23)cc1 | 24.8% | 6 h | 210 min | 83.5 ng/mL | 78.4 ng/mL | 384 ng·h/mL | 6 min | 155 ng·h/mL | – | – | – |
| COc1ccc(Oc2ccnc3cc(-c4cnn(C5CCNCC5)c4)ccc23)cc1 | 45.5% | 4 h | 642 min | 48.9 ng/mL | 83.9 ng/mL | 437 ng·h/mL | 6 min | 95.9 ng·h/mL | 5.61 | – | – |
| Cc1ccc(Oc2ccnc3cc(-c4cnn(C5CCNCC5)c4)ccc23)cc1 | 44.8% | 4 h | 198 min | 94.1 ng/mL | 131 ng/mL | 745 ng·h/mL | 6 min | 166 ng·h/mL | – | – | – |
| C[C@@H](Oc1cc(-c2cnn(C3CCNCC3)c2)cnc1N)c1c(Cl)ccc(F)c1Cl [CRIZOTINIB] | – | – | – | – | – | – | – | – | – | 5.60 | 5.00 |
